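Exposure lasted 48 hours, with cells grown in 96-well plates and compounds tested at five concentrations. GI50 = concentration required for 50% inhibition of growth. At the TGI there is no net growth.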
Columns and labels:
Assay in all cases: inhibition of tumour cell growth, NCI panel, 48 h
KM12 colon = system: KM12 colon
NCI-H522 lung = system: NCI-H522 lung
SK-MEL-2 melanoma = system: SK-MEL-2 melanoma
HCC-2998 colon = system: HCC-2998 colon
EKVX NSCLC = system: EKVX NSCLC
HOP-62 NSCLC = system: HOP-62 NSCLC
OVCAR-4 ovarian = system: OVCAR-4 ovarian
SNB-19 CNS = system: SNB-19 CNS
LOX IMVI melanoma = system: LOX IMVI melanoma
PC-3 prostate = system: PC-3 prostate

SMILES | TGI (KM12 colon) [µM] | TGI (NCI-H522 lung) [µM] | TGI (SK-MEL-2 melanoma) [µM] | TGI (HCC-2998 colon) [µM] | TGI (EKVX NSCLC) [µM] | TGI (HOP-62 NSCLC) [µM] | TGI (OVCAR-4 ovarian) [µM] | TGI (SNB-19 CNS) [µM] | TGI (LOX IMVI melanoma) [µM] | GI50 (KM12 colon) [µM] | GI50 (NCI-H522 lung) [µM] | GI50 (PC-3 prostate) [µM] | TGI (PC-3 prostate) [µM] | GI50 (EKVX NSCLC) [µM] | GI50 (LOX IMVI melanoma) [µM] | GI50 (HOP-62 NSCLC) [µM] | GI50 (OVCAR-4 ovarian) [µM] | GI50 (SNB-19 CNS) [µM] | GI50 (SK-MEL-2 melanoma) [µM] | GI50 (HCC-2998 colon) [µM]
COc1cc2nc(NCCCCCNC(=O)c3ccco3)nc(N)c2cc1OC | 62.4 | 96.4 | 36.5 | 38.2 | > 100 | 61.3 | > 100 | > 100 |  |  |  |  |  |  |  |  |  |  |  | 
C/C=C(\C)c1cc(O)c(C)c2c1Oc1cc(O)c(Cl)c(C)c1C(=O)O2 | 47.6 | 51.3 | 41.8 | 26.5 | 61.2 | 51.1 | 34.5 | 31.6 | 31.6 |  |  |  |  |  |  |  |  |  |  | 
O=C(O)/C(Cl)=C(\Cl)C(=O)Nc1ccc(Cl)c(Cl)c1Cl | 36.6 | 23.7 | 33.9 | 35.1 | 37.1 | 62.3 | 33.6 | 30.2 | 31.2 |  |  |  |  |  |  |  |  |  |  | 
COC1O[C@@H]2C[C@H]3C(C)(C)CCC[C@]3(C)C3=CCCC1[C@@]32C (some centres undefined) | > 100 | > 100 |  |  | > 100 | > 100 | > 100 | > 100 | > 100 | > 100 | > 100 | 0.515 | > 100 | > 100 | > 100 | > 100 | > 100 | > 100 |  | 
COc1ccc(C=O)c(NC(=O)C(C)C)c1 | > 10 | 46.3 | > 100 |  | > 100 |  | > 100 | > 100 | > 100 |  |  |  |  |  |  |  |  |  |  | 
CCO/C=C1\N=C(c2ccccc2Br)OC1=O |  | > 100 | > 100 | > 100 | > 100 | > 100 | > 100 | > 100 | > 100 |  |  |  |  |  |  |  |  |  |  | 
Cc1nc2ccccc2c(/C=C/c2ccc(Br)cc2)c1C(=O)/C=C/c1ccccc1 | 4.37 | 3.04 | 3.46 | 3.54 | 3.32 | 3.4 | 4.49 | 3.05 | 3.01 | 1.95 | 1.42 |  |  | 1.75 | 1.65 | 1.76 | 1.69 | 1.62 | 1.75 | 1.8
O=C(O)COc1c(Cl)cc(Cl)c2cccnc12 | > 100 | > 100 | > 100 |  | > 100 | > 100 | > 100 | > 100 | > 100 |  |  |  | > 100 |  |  |  |  |  |  | 
CC(C)c1c2[nH]c3ccccc3c2c(C(C)C)c2[nH]c3ccccc3c12 | > 100 | > 100 | > 100 | > 100 | > 100 | > 100 | > 100 | > 100 | > 100 |  |  |  |  |  |  |  |  |  |  | 
CC1(C)OC2C(=O)C=C(COCc3ccccc3)C2O1 (centres undefined) | 51.1 | 38 | > 100 |  | > 100 | 79 |  | > 100 | 53.5 |  |  |  | > 100 |  |  |  |  |  |  | 
CN(C)c1ccc(N=Nc2ccncc2)cc1 | > 100 |  |  | 92.6 | > 100 | > 100 | > 100 | > 100 | > 100 |  |  |  | > 100 |  |  |  |  |  |  | 
CC1=CC(=O)C(O)C2(C)C1CC(O)C13COC4(C)C(OC(=O)C41)C(O)C23 (centres undefined) | 33.6 | 30.5 | 29.5 |  | 41.6 | 36.6 | > 100 | > 100 | 8.4 | 7.41 | 6.65 | 26.4 | > 100 | 11.9 | 2.41 | 6.12 | 15 | 7.94 | 6.36 | 
COc1ccc(C(Cl)=C(c2ccc(OCCN(C)C)cc2)c2ccc(OCCN(C)C)cc2)cc1 | 2.83 | 3.01 | 3.12 | 7.35 | 18.1 | 10.4 | 5.99 | 7.43 |  |  |  |  |  |  |  |  |  |  |  | 
COc1ccc2c(c1OC)C(=O)OC2C1c2c(c([N+](=O)[O-])c3c(c2OC)OCO3)CCN1C (centres undefined) | > 100 | > 100 | > 100 | > 100 | > 100 | > 100 | > 100 | > 100 | > 100 | > 100 | > 100 |  |  | > 100 | > 100 | > 100 | > 100 | > 100 | > 100 | 27.8
CCOC(=O)C(=O)Nc1cc(Cl)ccc1Cl | > 100 | > 100 | > 100 | > 100 | > 100 | > 100 | > 100 | > 100 |  |  |  |  |  |  |  |  |  |  |  | 
COC(CN1C=C(Sc2ccccc2)CC1)OC | 67.8 |  | 44.8 | > 100 | > 100 | > 100 | > 100 | > 100 | 56.3 |  |  |  |  |  |  |  |  |  |  | 
O=c1[nH]cnc2c(C3NC(CO)C(O)C3O)c[nH]c12 (centres undefined) | > 100 | > 100 |  | > 100 | > 100 | > 100 | > 100 | > 100 | > 100 | > 100 | > 100 | > 100 | > 100 | > 100 | > 100 | > 100 | > 100 | > 100 |  | > 100
CN1CCN(CC(O)COc2c(Br)c(Br)c(Br)c3c2OC(C)(C)C3)CC1 (centres undefined) | 43.2 | 28.5 | 25.2 |  | 19.7 | 25.1 | 35.1 | 42.9 | 3.36 | 6.06 | 6.15 | 5.06 | 21.1 | 5.21 | 1.92 | 4.26 | 13.7 | 12.7 | 10.2 | 
Cc1ccc(NC(=O)c2ccccc2C(=O)O)cc1C | > 100 | > 100 | > 100 |  | > 100 | > 100 | > 100 | > 100 | > 100 |  |  |  | > 100 |  |  |  |  |  |  | 
